# Legend:
# [1] = test system: HPV E7 oncoprotein with IKK complex or β-catenin destruction complex proteins; assay: Gaussia princeps luciferase complementation assay (GPCA); type: binding, human papillomavirus / human; conditions: for GPCA signal, interaction with CK1a1: partner CK1a1; for GPCA signal, interaction with CK1 alpha 1: partner CK1 alpha 1, Fig 4M; for GPCA signal, interaction with CK1e: partner CK1e; for GPCA signal, interaction with CK1g1: partner CK1g1; for GPCA signal, interaction with CK1g2: partner CK1g2; for GPCA signal, interaction with CK1g3: partner CK1g3; for GPCA signal, interaction with CK1d: partner CK1d; for GPCA signal, interaction with DVL1: partner DVL1; for GPCA signal, interaction with DVL2: partner DVL2; for GPCA signal, interaction with DVL3: partner DVL3; for GPCA signal, interaction with GSK3B: partner GSK3B; for GPCA signal, interaction with NEMO: partner NEMO, Fig 3K; for GPCA signal, interaction with PPP2CA: partner PPP2CA; for GPCA signal, interaction with PPP2CB: partner PPP2CB
# From the text: The coding (or mutated/truncated) sequences of HPV E7 from several alpha and beta genotypes (alpha: HPV16, 18, 33, and 39; beta: HPV8, 38, and 49) were transferred into Gateway-compatible GPCA destination vector pSPICA-N2. The open reading frames (ORFs) encoding proteins involved in IKK or β-catenin destruction complex were obtained from the human ORFeome v7.1 and 8.1 (Dana-Farber Cancer Institute, Boston, MA, USA) and were transferred into pSPICA-N1 plasmid. GPCA expression vectors (pSPICA-N1 and N2) allow the expression of two complementary fragments of the G. princeps luciferase (Gluc1 or Gluc2) linked to the N-terminal ends of tested proteins. All constructions were controlled by Sanger sequencing (GIGA-Genomics platform, University of Liege). GPCA experiments were then performed as extensively described previously[90],[91]. Briefly, HEK-293T cells were simultaneously transfected with 100 ng of pSPICA-N1-IKK or β-catenin destruction complex proteins and 100 ng of pSPICA-N2-E7 using PEI Max (Polysciences, Warrington, PA, USA). After 24 h, cells were washed, lysed and luciferase enzymatic activity was measured for 10 seconds using a Centro LB960 microplate luminometer (Berthold Technologies, Bad Wildbad, Germany). The luciferase assay system was purchased from Promega. As previously described, results were expressed as a luminescence value normalized over the sum of controls [normalized luminescence ratio (NLR)].
# [2] = test system: defensin/elafin mRNA in immortalized human keratinocytes (HaCaT cells); assay: RT-qPCR of innate peptide expression in non-infected immortalized keratinocytes (TNFα/LPS, siRNA, inhibitors); type: cell-based
compound,measurement,setting,value
HPV16 E7,"GPCA signal, interaction with Beta-TrCP","[1]; partner Beta-TRCP, Fig 4L, replicate 1",8.518
same,"GPCA signal, interaction with Beta-TrCP","[1]; partner Beta-TRCP, Fig 4L, replicate 2",8.927
same,"GPCA signal, interaction with Beta-TrCP","[1]; partner Beta-TRCP, Fig 4L, replicate 3",6.394
same,"GPCA signal, interaction with Beta-TrCP","[1]; partner Beta-TrCP, Fig 4N, replicate 1",8.216
same,"GPCA signal, interaction with Beta-TrCP","[1]; partner Beta-TrCP, Fig 4N, replicate 2",18.6197
same,"GPCA signal, interaction with Beta-TrCP","[1]; partner Beta-TrCP, Fig 4N, replicate 3",12.6285
same,"GPCA signal, interaction with CK1a1","[1]; Fig 4L, replicate 1",4.195
same,"GPCA signal, interaction with CK1a1","[1]; Fig 4L, replicate 2",4.4237
same,"GPCA signal, interaction with CK1a1","[1]; Fig 4L, replicate 3",4.5837
same,"GPCA signal, interaction with CK1 alpha 1",[1]; replicate 1,4.747
same,"GPCA signal, interaction with CK1 alpha 1",[1]; replicate 2,7.358
same,"GPCA signal, interaction with CK1 alpha 1",[1]; replicate 3,7.5013
same,"GPCA signal, interaction with CK1e","[1]; Fig 4L, replicate 1",2.875
same,"GPCA signal, interaction with CK1e","[1]; Fig 4L, replicate 2",2.433
same,"GPCA signal, interaction with CK1e","[1]; Fig 4L, replicate 3",2.765
same,"GPCA signal, interaction with CK1g1","[1]; Fig 4L, replicate 1",13.8547
same,"GPCA signal, interaction with CK1g1","[1]; Fig 4L, replicate 2",9.7345
same,"GPCA signal, interaction with CK1g1","[1]; Fig 4L, replicate 3",4.265
same,"GPCA signal, interaction with CK1g2","[1]; Fig 4L, replicate 1",8.184
same,"GPCA signal, interaction with CK1g2","[1]; Fig 4L, replicate 2",7.066
same,"GPCA signal, interaction with CK1g2","[1]; Fig 4L, replicate 3",7.286
same,"GPCA signal, interaction with CK1g3","[1]; Fig 4L, replicate 1",8.632
same,"GPCA signal, interaction with CK1g3","[1]; Fig 4L, replicate 2",7.582
same,"GPCA signal, interaction with CK1g3","[1]; Fig 4L, replicate 3",7.146
same,"GPCA signal, interaction with CK1d","[1]; Fig 4L, replicate 1",4.409
same,"GPCA signal, interaction with CK1d","[1]; Fig 4L, replicate 2",3.975
same,"GPCA signal, interaction with CK1d","[1]; Fig 4L, replicate 3",4.309
same,"GPCA signal, interaction with DVL1","[1]; Fig 4L, replicate 1",3.768
same,"GPCA signal, interaction with DVL1","[1]; Fig 4L, replicate 2",3.207
same,"GPCA signal, interaction with DVL1","[1]; Fig 4L, replicate 3",4.087
same,"GPCA signal, interaction with DVL2","[1]; Fig 4L, replicate 1",1.678
same,"GPCA signal, interaction with DVL2","[1]; Fig 4L, replicate 2",1.485
same,"GPCA signal, interaction with DVL2","[1]; Fig 4L, replicate 3",1.904
same,"GPCA signal, interaction with DVL3","[1]; Fig 4L, replicate 1",1.994
same,"GPCA signal, interaction with DVL3","[1]; Fig 4L, replicate 2",1.934
same,"GPCA signal, interaction with DVL3","[1]; Fig 4L, replicate 3",1.325
same,"GPCA signal, interaction with GSK3B","[1]; Fig 4L, replicate 1",9.854
same,"GPCA signal, interaction with GSK3B","[1]; Fig 4L, replicate 2",8.937
same,"GPCA signal, interaction with GSK3B","[1]; Fig 4L, replicate 3",8.081
same,"GPCA signal, interaction with NEMO",[1]; replicate 1,28.7366
same,"GPCA signal, interaction with NEMO",[1]; replicate 2,37.4793
same,"GPCA signal, interaction with NEMO",[1]; replicate 3,29.9172
same,"GPCA signal, interaction with PPP2CA","[1]; Fig 4L, replicate 1",1.175
same,"GPCA signal, interaction with PPP2CA","[1]; Fig 4L, replicate 2",1.457
same,"GPCA signal, interaction with PPP2CA","[1]; Fig 4L, replicate 3",0.9985
same,"GPCA signal, interaction with PPP2CB","[1]; Fig 4L, replicate 1",2.065
same,"GPCA signal, interaction with PPP2CB","[1]; Fig 4L, replicate 2",1.7166
same,"GPCA signal, interaction with PPP2CB","[1]; Fig 4L, replicate 3",1.3201
"Cc1ccc(S(=O)(=O)/C=C/C#N)cc1 [BAY 11-7082, reference compound]",TNFα/LPS-induced defensin/elafin mRNA levels,[2],significant decrease

# Reference: publication PMC8885657, “HPV infection alters vaginal microbiome through down-regulating host mucosal innate peptides used by Lactobacilli as amino acid sources” (Nature Communications, 2022)
